Patent US12421253B2 (Mirati Therapeutics, Inc., priority 2020, dated 2025)

Columns and labels:
KRas^G12D = molecular target: T1, KRas^G12D (Homo sapiens, UniProt P01116, G12D); test: KRas binding assay (TR-FRET displacement of Cy5 labelled tracer)
T1 construct: […]; biotin (biotinylated); purchased Accelegan Inc
Method: (§4) The ability of a compound to bind to KRas was measured using a TR-FRET displacement assay. […] After a 60-minute incubation at room temperature, the reaction was measured using a BMG LABTECH CLARIO star Plus via TR-FRET. […] The POC values were fit to a 4-parameter IC50 equation and the IC50 value reported.

KRas^G12R = molecular target: T2, KRas^G12R (Homo sapiens, UniProt P01116, G12R); test: as above
T2 construct: […]; biotin (biotinylated); purchased Accelegan Inc
Method: as §4

KRas^G12V = molecular target: T3, KRas^G12V (Homo sapiens, UniProt P01116, G12V); test: as above
T3 construct: […]; biotin (biotinylated); purchased Accelegan Inc
T3 sequence (P01116 1-169 isoform P01116-2 G12V): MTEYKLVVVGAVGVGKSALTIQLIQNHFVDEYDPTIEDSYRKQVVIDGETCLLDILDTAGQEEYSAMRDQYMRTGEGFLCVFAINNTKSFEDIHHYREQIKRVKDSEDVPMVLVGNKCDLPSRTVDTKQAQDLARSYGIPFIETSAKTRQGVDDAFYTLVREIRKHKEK
Method: as §4

ASPC1 cells, pERK = test: Inhibition of KRas phosphorylation of ERK (Cisbio HTRF Advanced pERK assay); format: cell-based; conditions: Homo sapiens, ASPC1, 3 h, AsPC-1 cells, read-out: Inhibition (HTRF IC50 nM) of KRas-mediated Phosphorylation of ERK, AsPC-1
Method: (§1) Inhibition of KRas Phosphorylation of ERK (HTRF) by Exemplary Compounds of Formula (I)
(§2) Cisbio HTRF Advanced pERK Assay Catalog #64AERPEH
(§3) • Day 1: Seed 6,000 cells/well −25 μl/well in 384-well white solid bottom plate; RPM1_10% FBS. […] To harvest cells from flask using 0.05% Trypsin/EDTA solution. Add 10 mL of media to stop trypsinizing. Pipette the cells into a conical bottom 50 mL centrifuge tube and centrifuge 5 min×1000 rpm. • 2. Re-suspend the cell pellet in media, take a cell count, and then adjust the cell density using fresh media. • 3. Seed 6,000 cells into cell culture plate with […]. The • 4. Incubate cell plate overnight in a 37° C., 5% CO2 incubator. Compound Titrations • 1. Use Tecan to complete the compound addition. Compounds start from 10 uM top, 3-fold dilution, and 10 doses. The final DMSO concentration is 0.8%. Dispensed 0.2 uM Trametinib as Min control. • 2. Incubate cell plate for 3 hrs in the incubator. Detection with Cisbio pERK HTRF Kit • 1. Dilute 1 volume of 4× lysis buffer with 3 volumes of deionized water. Then, add 100× the blocking reagent. Keep lysis buffer on the ice. • 2. At the end of the compound treatment, flick-off the media. • 3. Add 35 μL of lysis buffer per well using a Multidrop Combi. Then place on a plate agitator shaking at 300 rpm at 4° C. for 40 mins. • 4. Make up the HTRF antibody buffer. For each assay plate, mix 50 μL of d2-conjugate antibody with 950 μL of detection buffer. Similarly, mix 50 μL of Cryptate antibody with 950 μL of detection buffer. Then mix the two diluted antibodies together. • 5. Dispense 3.4 μL the antibody buffer to wells of an empty assay plate. Seal the plate and centrifuge plate 30 sec×1000 rpm. • 6. At the end of the 4° C. lysis, centrifuge the lysate plates 3 mins×1500 rpm. • 7. Use the Bravo to transfer 13.6 μL of lysate from cell culture plate to assay plate. Then incubate assay plate for 2 hrs at room temperature. • 8. At the end of incubation, read plate on the Envision after centrifuging plate 30 sec×1000 rpm.

H727 cells, pERK = test: as above; format: cell-based; conditions: Homo sapiens, NCI-H727, 3 h, read-out: Inhibition (HTRF IC50 nM) of KRas-mediated Phosphorylation of ERK, H727
Method: as §1, §2, §3

MKN1 cells, pERK = test: as above; format: cell-based; conditions: Homo sapiens, MKN-1, 3 h, read-out: Inhibition (HTRF IC50 nM) of KRas-mediated Phosphorylation of ERK, MKN1
Method: as §1, §2, §3

PSN1 cells, pERK = test: as above; format: cell-based; conditions: Homo sapiens, PSN1, 3 h, read-out: Inhibition (HTRF IC50 nM) of KRas-mediated Phosphorylation of ERK, PSN1
Method: as §1, §2, §3

T2 sequence (P01116 1-169 isoform P01116-2 G12R): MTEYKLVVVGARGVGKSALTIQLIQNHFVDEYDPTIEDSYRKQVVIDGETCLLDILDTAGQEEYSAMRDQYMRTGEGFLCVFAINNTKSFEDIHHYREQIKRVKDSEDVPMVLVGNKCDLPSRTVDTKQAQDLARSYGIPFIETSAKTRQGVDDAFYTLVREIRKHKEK
T1 sequence (P01116 1-169 isoform P01116-2 G12D): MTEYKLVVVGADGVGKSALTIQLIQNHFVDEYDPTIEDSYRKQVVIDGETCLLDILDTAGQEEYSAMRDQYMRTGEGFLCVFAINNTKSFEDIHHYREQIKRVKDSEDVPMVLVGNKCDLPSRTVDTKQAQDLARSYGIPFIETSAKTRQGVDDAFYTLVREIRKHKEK

## O=C1NCC12CCCN(c1nc(OC[C@@]34CCCN3C[C@H](F)C4)nc3c1CCN(c1cc(O)cc4ccc(F)c(Cl)c14)C3)C2 (stereo partly drawn) [Example 231, 6-(7-(8-chloro-7-fluoro-3-hydroxynaphthalen-1-yl)-2-(((2R,7aS)-2-fluorotetrahydro-1H-pyrrolizin-7a(5H)-yl)methoxy)-5,6,7,8-tetrahydropyrido[3,4-d]pyrimidin-4-yl)-2,6-diazaspiro[3.5]nonan-1-one]
KRas^G12D
  IC50: 12 nM
KRas^G12R
  IC50: 26 nM
KRas^G12V
  IC50: 15 nM
ASPC1 cells, pERK
  IC50: 2360 nM
H727 cells, pERK
  IC50: 4380 nM
MKN1 cells, pERK
  IC50: 929 nM
PSN1 cells, pERK
  IC50: ≥ 10000 nM

## Oc1cc(N2CCc3c(nc(OC[C@@]45CCCN4C[C@H](F)C5)nc3N3CCOCC(n4cccn4)C3)C2)c2c(Br)c(F)ccc2c1 (stereo partly drawn) [Example 221, 4-(4-(6-(1H-pyrazol-1-yl)-1,4-oxazepan-4-yl)-2-(((2R,7aS)-2-fluorotetrahydro-1H-pyrrolizin-7a(5H)-yl)methoxy)-5,8-dihydropyrido[3,4-d]pyrimidin-7(6H)-yl)-5-bromo-6-fluoronaphthalen-2-ol]
KRas^G12D
  IC50: 4 nM
KRas^G12R
  IC50: 5 nM
KRas^G12V
  IC50: 3 nM
ASPC1 cells, pERK
  IC50: 1360 nM
H727 cells, pERK
  IC50: 1460 nM
MKN1 cells, pERK
  IC50: 145 nM
PSN1 cells, pERK
  IC50: ≥ 10000 nM

## Oc1cc(N2CCc3c(nc(OC[C@@]45CCCN4C[C@H](F)C5)nc3N3CCCC4(CC(O)C4)C3)C2)c2c(Cl)c(F)ccc2c1 (stereo partly drawn) [Example 71, 6-(7-(8-chloro-7-fluoro-3-hydroxynaphthalen-1-yl)-2-(((2R,7aS)-2-fluorohexahydro-1H-pyrrolizin-7a-yl)methoxy)-5,6,7,8-tetrahydropyrido[3,4-d]pyrimidin-4-yl)-6-azaspiro[3.5]nonan-2-ol]
KRas^G12D
  IC50: 4 nM
KRas^G12R
  IC50: ≤ 2 nM
KRas^G12V
  IC50: ≤ 2 nM
ASPC1 cells, pERK
  IC50: 1170 nM
H727 cells, pERK
  IC50: 848 nM
MKN1 cells, pERK
  IC50: 211 nM
PSN1 cells, pERK
  IC50: 6040 nM

## OCC1COCCN(c2nc(OC[C@@]34CCCN3C[C@H](F)C4)nc3c2CCN(c2cc(O)cc4ccc(F)c(Br)c24)C3)C1 (stereo partly drawn) [Example 220, 5-bromo-6-fluoro-4-(2-(((2R,7aS)-2-fluorohexahydro-1H-pyrrolizin-7a-yl)methoxy)-4-(6-(hydroxymethyl)-1,4-oxazepan-4-yl)-5,6-dihydropyrido[3,4-d]pyrimidin-7(8H)-yl)naphthalen-2-ol]
KRas^G12D
  IC50: ≤ 2 nM
KRas^G12R
  IC50: ≤ 2 nM
KRas^G12V
  IC50: ≤ 2 nM
ASPC1 cells, pERK
  IC50: 668 nM
H727 cells, pERK
  IC50: 616 nM
MKN1 cells, pERK
  IC50: 29 nM
PSN1 cells, pERK
  IC50: 4100 nM

## Oc1cc(N2CCc3c(nc(OC[C@@]45CCCN4C[C@H](F)C5)nc3N3CC4CC(O)CC3C4)C2)c2c(Cl)c(F)ccc2c1 (single isomer, unassigned) [Example 76]
KRas^G12D
  IC50: 37 nM
KRas^G12R
  IC50: 7 nM
KRas^G12V
  IC50: 7 nM
PSN1 cells, pERK
  IC50: 5630 nM

## CCc1c(F)ccc2cc(O)cc(N3CCc4c(nc(OC[C@@]56CCCN5C[C@H](F)C6)nc4N4C[C@H]5CC[C@H](O)[C@H]5C4)C3)c12 [Example 182, (3aR,4S,6aS)-2-(7-(8-ethyl-7-fluoro-3-hydroxynaphthalen-1-yl)-2-(((2R,7aS)-2-fluorohexahydro-1H-pyrrolizin-7a-yl)methoxy)-5,6,7,8-tetrahydropyrido[3,4-d]pyrimidin-4-yl)octahydrocyclopenta[c]pyrrol-4-ol]
KRas^G12D
  IC50: 209 nM
KRas^G12R
  IC50: 118 nM
KRas^G12V
  IC50: 75 nM
ASPC1 cells, pERK
  IC50: 3920 nM
H727 cells, pERK
  IC50: 4660 nM
MKN1 cells, pERK
  IC50: 1300 nM
PSN1 cells, pERK
  IC50: ≥ 10000 nM

## CCc1c(F)ccc2cc(O)cc(N3CCc4c(nc(OC[C@@]56CCCN5C[C@H](F)C6)nc4N4CC5CC(O)C5C4)C3)c12 (stereo partly drawn) [Example 177, 3-(7-(8-ethyl-7-fluoro-3-hydroxynaphthalen-1-yl)-2-(((2R,7aS)-2-fluorohexahydro-1H-pyrrolizin-7a-yl)methoxy)-5,6,7,8-tetrahydropyrido[3,4-d]pyrimidin-4-yl)-3-azabicyclo[3.2.0]heptan-6-ol]
KRas^G12D
  IC50: 19 nM
KRas^G12R
  IC50: 15 nM
KRas^G12V
  IC50: 9 nM
ASPC1 cells, pERK
  IC50: 1310 nM
H727 cells, pERK
  IC50: 1380 nM
MKN1 cells, pERK
  IC50: 479 nM
PSN1 cells, pERK
  IC50: ≥ 10000 nM

## CCc1c(F)ccc2cc(O)cc(N3CCc4c(nc(OC[C@@]56CCCN5C[C@H](F)C6)nc4N4CCCc5nn(C(=O)NC(C)C)cc5C4)C3)c12 [Example 195, 5-(7-(8-ethyl-7-fluoro-3-hydroxynaphthalen-1-yl)-2-(((2R,7aS)-2-fluorohexahydro-1H-pyrrolizin-7a-yl)methoxy)-5,6,7,8-tetrahydropyrido[3,4-d]pyrimidin-4-yl)-N-isopropyl-5,6,7,8-tetrahydropyrazolo[4,3-c]azepine-2(4H)-carboxamide]
KRas^G12D
  IC50: 17 nM
KRas^G12R
  IC50: 20 nM
KRas^G12V
  IC50: 8 nM
ASPC1 cells, pERK
  IC50: 1110 nM
H727 cells, pERK
  IC50: 373 nM
MKN1 cells, pERK
  IC50: 1520 nM
PSN1 cells, pERK
  IC50: ≥ 10000 nM

## CCc1c(F)ccc2cc(O)cc(N3CCc4c(nc(OC[C@@]56CCCN5C[C@H](F)C6)nc4N4C[C@H](O)C[C@@H](C(N)=O)C4)C3)c12 [Example 186, (3R,5R)-1-(7-(8-ethyl-7-fluoro-3-hydroxynaphthalen-1-yl)-2-(((2R,7aS)-2-fluorohexahydro-1H-pyrrolizin-7a-yl)methoxy)-5,6,7,8-tetrahydropyrido[3,4-d]pyrimidin-4-yl)-5-hydroxypiperidine-3-carboxamide]
KRas^G12D
  IC50: ≤ 2 nM
KRas^G12R
  IC50: ≤ 2 nM
KRas^G12V
  IC50: ≤ 2 nM
ASPC1 cells, pERK
  IC50: 4360 nM
H727 cells, pERK
  IC50: 2670 nM

## CN1CCC[C@H]1COc1nc2c(c(N3CCCC4(CNC(=O)N4)C3)n1)CCN(c1cccc3cccc(Cl)c13)C2 (stereo partly drawn) [Example 210, 7-(7-(8-chloronaphthalen-1-yl)-2-(((S)-1-methylpyrrolidin-2-yl)methoxy)-5,6,7,8-tetrahydropyrido[3,4-d]pyrimidin-4-yl)-1,3,7-triazaspiro[4.5]decan-2-one]
KRas^G12D
  IC50: 579 nM
KRas^G12R
  IC50: 699 nM
KRas^G12V
  IC50: 497 nM
ASPC1 cells, pERK
  IC50: ≥ 10000 nM
H727 cells, pERK
  IC50: ≥ 10000 nM

## CN1CCC[C@H]1COc1nc2c(c(N3CCCC4(CC(=O)N4)C3)n1)CCN(c1cccc3cccc(Cl)c13)C2 (stereo partly drawn) [Example 207, 8-[7-(8-chloro-1-naphthyl)-2-[[(2S)-1-methylpyrrolidin-2-yl]methoxy]-6,8-dihydro-5H-pyrido[3,4-d]pyrimidin-4-yl]-1,8-diazaspiro[3.5]nonan-2-one]
KRas^G12D
  IC50: 765 nM
KRas^G12R
  IC50: 553 nM
KRas^G12V
  IC50: 404 nM
ASPC1 cells, pERK
  IC50: ≥ 10000 nM
H727 cells, pERK
  IC50: ≥ 10000 nM

## CN1CCC[C@H]1COc1nc2c(c(N3C[C@@H]4C(=O)NC(=O)[C@@H]4C3)n1)CCN(c1cccc3cccc(Cl)c13)C2 [Example 206, (3aS,6aR)-5-[7-(8-chloro-1-naphthyl)-2-[[(2S)-1-methylpyrrolidin-2-yl]methoxy]-6,8-dihydro-5H-pyrido[3,4-d]pyrimidin-4-yl]-3a,4,6,6a-tetrahydropyrrolo[3,4-c]pyrrole-1,3-dione]
KRas^G12D
  IC50: 932 nM
KRas^G12R
  IC50: 1620 nM
KRas^G12V
  IC50: 833 nM
ASPC1 cells, pERK
  IC50: ≥ 10000 nM
H727 cells, pERK
  IC50: ≥ 10000 nM

## CN(C)C(=O)c1cc2n(n1)CCCN(c1nc(OC[C@@H]3CCCN3C)nc3c1CCN(c1cccc4cccc(Cl)c14)C3)C2 [Example 209, (S)-5-(7-(8-chloronaphthalen-1-yl)-2-((1-methylpyrrolidin-2-yl)methoxy)-5,6,7,8-tetrahydropyrido[3,4-d]pyrimidin-4-yl)-N,N-dimethyl-5,6,7,8-tetrahydro-4H-pyrazolo[1,5-a][1,4]diazepine-2-carboxamide]
KRas^G12D
  IC50: 1120 nM
KRas^G12R
  IC50: 4140 nM
KRas^G12V
  IC50: 1900 nM
ASPC1 cells, pERK
  IC50: 7200 nM
H727 cells, pERK
  IC50: 8520 nM

## Oc1cc(N2CCc3c(nc(OC[C@@]45CCCN4C[C@H](F)C5)nc3N3CC4CC(O)CC3C4)C2)c2c(Br)c(F)ccc2c1 (single isomer, unassigned) [Example 213]
KRas^G12D
  IC50: 11 nM
KRas^G12R
  IC50: 3 nM
KRas^G12V
  IC50: 3 nM
PSN1 cells, pERK
  IC50: 6500 nM
